Data as given in patent publication US12350246B2 (Cancer Prevention Pharmaceuticals, Inc., priority 2015, dated 2025).
Structures can show the parent of a compound that is named as a salt. Each block holds one molecule with its values, some of them ahead of it.

Tests used:
[1] = system: COX; details: cited from earlier work
[2] = in vivo; cited from earlier work
[3] = Drug excipient compatibility: appearance and HPLC assay; format: physicochemical; details: 40° C./75% RH, four weeks
Method: A non-cGMP drug excipient compatibility study for eflornithine HCl/sulindac combination tablet was conducted. Appearance, HPLC Assay and XRPD properties were evaluated using a series of samples. The excipients that were tested included PVP, HPMC, lactose, EXPLOTAB™, Ac-Di-Sol®, PROSOLV®, STARCH 1500®, and OPADRY® Yellow. […] Total mass of most samples was approximately 750 mg. Preparation involved weigh off of components into 20cc scintillation vials, closed and vortexed for approximately 30 seconds. The samples were then stored in a 40° C./75% RH stability chamber for four weeks. Lids on the vials were loosely secured and were protected from light while stored in the chamber. Appearance observations were conducted by visual examination of the vials prepared for HPLC analysis. […] Excipient compatibility samples were analyzed using a method capable of detecting both actives, cflornithine and sulindac (FIG. 4A). The method employs a gradient reverse phase HPLC with Ultraviolet (UV) detection at 195 nm.

[4] = Drug excipient compatibility: XRPD; format: physicochemical; details: 40° C./75% RH, four weeks
Method: A non-cGMP drug excipient compatibility study for eflornithine HCl/sulindac combination tablet was conducted. Appearance, HPLC Assay and XRPD properties were evaluated using a series of samples. The excipients that were tested included PVP, HPMC, lactose, EXPLOTAB™, Ac-Di-Sol®, PROSOLV®, STARCH 1500®, and OPADRY® Yellow. […] Total mass of most samples was approximately 750 mg. Preparation involved weigh off of components into 20cc scintillation vials, closed and vortexed for approximately 30 seconds. The samples were then stored in a 40° C./75% RH stability chamber for four weeks. Lids on the vials were loosely secured and were protected from light while stored in the chamber. XRPD analysis was conducted on a Bruker AXS D8 Advance system with a Bragg-Brentano configuration using the CuKα radiation. Samples were analyzed at room temperature using the following parameters: 40 kV, 40 mA, 1° divergence and antiscatter slits, a method measuring in continuous mode from 2-40°2Θ with a 0.05° step and 1 second/step time. Between 3 and 25 mg of sample was analyzed using a rotating, top-filled steel sample holder in a nine-position auto-sampler accessory. The system was calibrated using traceable standards.

[5] = system: tumor putrescine levels; details: eflornithine infusion, without suppressing peripheral platelet counts; cited from earlier work
[6] = system: tumors harboring Ki-ras mutations; details: reduced from 90%; cited from earlier work
[7] = system: prostoglandin E2 (PGE2) levels in flat mucosa; details: 300 mg/day, one month; cited from earlier work
[8] = cited from earlier work
[9] = in vivo; cited from earlier work; remark: listed apart in the source

SMILES: CC1=C(CC(=O)O)c2cc(F)ccc2/C1=C\c1ccc(S(C)(=O)=O)cc1 [Sulindac sulfone]
COX-inhibitory activity [1]: lacks COX-inhibitory activity

SMILES: Cc1ccc(-c2cc(C(F)(F)F)nn2-c2ccc(S(N)(=O)=O)cc2)cc1 [celecoxib, 4-[5-(4-Methylphenyl)-3-(trifluoromethyl)pyrazol-1-yl]benzenesulfonamide]
Increase in rates of heart and blood vessel disease [2]: 30%
Risks of gastrointestinal side effects [2]: greater than 80%

Compatibility with excipients (appearance, HPLC assay) [3]: compatible with the potential excipients
Compatibility with excipients (XRPD) [4]: compatible with the potential excipients
SMILES: NCCCC(N)(C(=O)O)C(F)F (stereo not drawn) [eflornithine HCl]

SMILES: NCCCC(N)(C(=O)O)C(F)F (stereo not drawn) [eflornithine, 2,5-diamino-2-(difluoromethyl)pentanoic acid]
Decrease in tumor putrescine levels [5]: 90%
Tumors harboring Ki-ras mutations [6]: 36%

SMILES: CC(C)Cc1ccc(C(C)C(=O)O)cc1 (stereo not drawn) [ibuprofen]
PGE2 levels in flat mucosa [7]: significant decrease

SMILES: CN1C(C(=O)Nc2ccccn2)=C(O)c2ccccc2S1(=O)=O [piroxicam, 4-hydroxy-2-methyl-N-2-pyridyl-2H-1,2-benzothiazine-3-carboxamide 1,1-dioxide]
Tumors harboring Ki-ras mutations [6]: 25%

Compatibility with excipients (appearance, HPLC assay) [3]: compatible with the potential excipients
Compatibility with excipients (XRPD) [4]: compatible with the potential excipients
SMILES: CC1=C(CC(=O)O)c2cc(F)ccc2/C1=C\c1ccc([S+](C)[O-])cc1 (stereo not drawn) [sulindac, (Z)-5-fluoro-2-methyl-1-((4-(methylsulfinyl)phenyl)methylene)-1H-indene-3-acetic acid]
Fraction of the drug absorbed ([8]; after oral administration): about 90%
Time to peak plasma levels ([8]; fasting patients): about 2 hours
Mild gastrointestinal effects, patients affected [9]: ~20%
Skin rash and pruritus, patients affected [9]: 5%
